Test results reported in US11945813B2, “5-substituted 4-amino-1H-benzo[c][1,2,6]thiadiazine 2,2-dioxides and formulations and uses thereof” (Firmenich Incorporated, priority 2018, dated 2024).

Experiments:
[1] = Sensory evaluation of inherent sweetness of test compound; assay type: in vivo, human; details: test compound alone at 10 ppm
Method: (§1) Test samples containing either a sweetener (sucrose or high-fructose corn syrup) alone or in combination with a test compound were presented in pairs to a group of panelists who were asked to determine which of the samples was sweeter. Subjects refrained from eating or drinking (except water) for at least 1 hour prior to the test. Subjects rinsed with water several times to clean the mouth. The samples within a paired comparison test were presented in a randomized, counterbalanced order. Panelists had up to a 1 minute delay between taste tests to clear the mouth of any tastes. Binomial probability tables were used to determine the probability of the correct number of responses occurring for each test at alpha-0.05.
(§2) Stock solutions of test compounds were prepared at 1000× final concentration with ethanol to ensure dispersion in solution. Test compound samples including sucrose were prepared by diluting the stock solutions in a low sodium buffer (0.952 g of KCl, 5.444 g of Na2HPO4, and 0.952 g of KH2PO4 in deionized ultrafiltered water) at pH 7.1 and containing sucrose. Test compound samples including high fructose corn syrup were prepared by diluting the stock solutions in the low sodium buffer at pH 2.8 (using citric acid to adjust the pH) and containing high fructose corn syrup. Control samples were balanced to 0.1% ethanol final.
Compound 200 was also tested for inherent sweetness. […]

T1R2/T1R3 taste receptor = target: T1, T1R2/T1R3 taste receptor (Homo sapiens, UniProt Q8TE23); assay: Receptor-based assay: sweetener EC50 alone and with test compound (enhancement ratio); assay type: cell-based; details: for Sucralose Enhancement EC50 Ratio: sweetener sucralose; for Sucrose Enhancement EC50 Ratio: sweetener sucrose
T1 sequence (Q8TE23 20-839): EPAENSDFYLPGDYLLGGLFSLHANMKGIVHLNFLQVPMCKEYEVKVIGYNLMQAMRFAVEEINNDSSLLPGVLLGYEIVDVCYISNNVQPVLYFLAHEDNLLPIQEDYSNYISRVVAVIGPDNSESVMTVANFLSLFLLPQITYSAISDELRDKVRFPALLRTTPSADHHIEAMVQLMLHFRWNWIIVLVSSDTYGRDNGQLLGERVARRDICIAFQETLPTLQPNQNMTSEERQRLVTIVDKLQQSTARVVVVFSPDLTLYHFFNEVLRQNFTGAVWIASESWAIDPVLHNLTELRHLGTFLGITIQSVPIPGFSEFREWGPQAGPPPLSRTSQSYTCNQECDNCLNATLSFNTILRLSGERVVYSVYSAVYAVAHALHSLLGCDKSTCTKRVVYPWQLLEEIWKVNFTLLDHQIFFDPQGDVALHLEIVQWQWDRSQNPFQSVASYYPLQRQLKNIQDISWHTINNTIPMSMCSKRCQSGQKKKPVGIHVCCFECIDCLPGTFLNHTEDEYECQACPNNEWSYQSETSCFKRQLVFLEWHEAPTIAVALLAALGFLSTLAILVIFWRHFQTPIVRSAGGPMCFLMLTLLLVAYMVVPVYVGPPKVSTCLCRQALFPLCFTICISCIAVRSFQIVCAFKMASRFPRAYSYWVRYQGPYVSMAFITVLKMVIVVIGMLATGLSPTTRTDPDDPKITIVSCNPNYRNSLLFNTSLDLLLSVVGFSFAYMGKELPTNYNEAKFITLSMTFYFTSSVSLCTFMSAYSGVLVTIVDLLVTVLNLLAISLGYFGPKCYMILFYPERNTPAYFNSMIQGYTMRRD
T1 sequence (Q7RTX0 21-852 partner): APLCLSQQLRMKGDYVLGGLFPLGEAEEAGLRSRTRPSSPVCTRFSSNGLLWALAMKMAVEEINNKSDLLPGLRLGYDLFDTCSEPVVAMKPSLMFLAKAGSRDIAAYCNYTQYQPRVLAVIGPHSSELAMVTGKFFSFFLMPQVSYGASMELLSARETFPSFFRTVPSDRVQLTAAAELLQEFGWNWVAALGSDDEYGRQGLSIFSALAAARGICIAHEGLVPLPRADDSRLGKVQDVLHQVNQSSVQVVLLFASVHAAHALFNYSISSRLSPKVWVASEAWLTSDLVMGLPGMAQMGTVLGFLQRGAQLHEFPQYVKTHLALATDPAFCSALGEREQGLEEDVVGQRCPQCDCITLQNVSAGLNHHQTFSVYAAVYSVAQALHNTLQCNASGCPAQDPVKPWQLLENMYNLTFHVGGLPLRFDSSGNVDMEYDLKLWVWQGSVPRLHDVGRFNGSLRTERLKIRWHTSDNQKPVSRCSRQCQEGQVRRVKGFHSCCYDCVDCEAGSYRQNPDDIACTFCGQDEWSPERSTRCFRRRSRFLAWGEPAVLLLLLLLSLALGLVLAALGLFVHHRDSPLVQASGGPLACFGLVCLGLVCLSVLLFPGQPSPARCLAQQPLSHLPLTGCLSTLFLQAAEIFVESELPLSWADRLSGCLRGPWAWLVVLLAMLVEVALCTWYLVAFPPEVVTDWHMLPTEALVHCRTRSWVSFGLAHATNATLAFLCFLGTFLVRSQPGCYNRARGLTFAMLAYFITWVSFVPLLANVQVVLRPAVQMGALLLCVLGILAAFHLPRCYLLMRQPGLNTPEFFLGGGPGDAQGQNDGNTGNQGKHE
How it was run: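 Sucrose, sucralose or fructose EC50 measured on human T1R2/T1R3, alone and with 3, 10 or 50 μM test compound. Enhancement is the EC50 ratio without/with compound, binned A >20, B 10-20, C >1 to <10.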

[2] = Sensory experiments: paired comparison of sweetener alone vs sweetener plus test compound; assay type: in vivo, human; details: panelists
Method: as §1
as §2, with “final. […]” for “final.”

Compound | inherent sweetness intensity, compared with sucrose solution [1] [% sucrose] | Sucralose Enhancement EC50 Ratio (T1R2/T1R3 taste receptor; 10 μM test compound) | Sucrose Enhancement EC50 Ratio (T1R2/T1R3 taste receptor; 3 μM test compound) | Sucrose Enhancement EC50 Ratio (T1R2/T1R3 taste receptor; 10 μM test compound) | Sucrose Enhancement EC50 Ratio (T1R2/T1R3 taste receptor; 50 μM test compound) | sweetness intensity of the combination of test compound and 6% HFCS, compared with HFCS-alone ([2]; test compound at 10 ppm or less with 6% HFCS, low sodium buffer pH 2.8) | Equivalent Sucrose Conc. ([2]; test compound at 10 ppm or less with 6% sucrose, low sodium buffer pH 7.1) | Fructose Enhancement EC50 Ratio (T1R2/T1R3 taste receptor; sweetener fructose, 10 μM test compound) | Sucralose Enhancement EC50 Ratio (T1R2/T1R3 taste receptor; 50 μM test compound)
CC(C)(COc1cccc2c1C(N)=NS(=O)(=O)N2)Nc1ccnc(-n2ccnc2)n1 [Compound 200, 4-amino-5-(2-((2-(1H-imidazol-1-yl)pyrimidin-4-yl)amino)-2-methylpropoxy)1H-benzo[c][1,2,6]thiadiazine 2,2-dioxide] | < 1.5 | A (An “A” value indicates an enhancement ratio of greater than 20) | C (A “C” value indicates an enhancement ratio greater than 1 and less than 10) | C (A “C” value indicates an enhancement ratio greater than 1 and less than 10) | C (A “C” value indicates an enhancement ratio greater than 1 and less than 10) | greater than 6 % HFCS | A (An “A” value indicates an equivalent sucrose concentration of 10% or greater) |  | 
CC(C)(COc1cccc2c1C(N)=NS(=O)(=O)N2)Nc1ccnc(Cl)n1 [Compound 201, 4-amino-5-(2-((2-chloropyrimidin-4-yl)amino)-2-methylpropoxy)-1H-benzo[c][1,2,6]thiadiazine 2,2-dioxide] |  |  | C (A “C” value indicates an enhancement ratio greater than 1 and less than 10) | C (A “C” value indicates an enhancement ratio greater than 1 and less than 10) | C (A “C” value indicates an enhancement ratio greater than 1 and less than 10) |  |  | C (A “C” value indicates an enhancement ratio greater than 1 and less than 10) | A (An “A” value indicates an enhancement ratio of greater than 20)
